# Like-named read-outs stand apart in the source and are kept apart here.
# Key:
# [1] = test system: E. faecalis ATCC 29212 VSE; assay: MIC broth microdilution; assay type: cell-based; settings: Enterococcus faecalis, ATCC29212
# Protocol: (§1) Twenty-four test agents were shipped to Micromyx and stored at −20° C. until assayed. The compounds were dissolved in 100% DMSO at 6.46 mg/mL prior to testing. Comparator drugs were supplied by Micromyx and were handled as described below:
# (§2) The test organisms for the assay were recent clinical isolates or reference strains acquired from the American Type Culture Collection (ATCC; Manassas, Va.). Upon receipt, the isolates were streaked onto Trypticase Soy Agar II+5% sheep blood (TSAB). Colonies were harvested from the plates and a cell suspension was prepared in Trypticase Soy Broth containing cryoprotectant. Aliquots were then frozen at −80° C. Prior to the assay, the frozen seeds of all bacterial isolates to be tested were thawed and streaked for isolation onto TSAB (BD/BBL, Sparks, Md.; Lot No. 9011894), and were incubated overnight at 35° C.
# (§3) The test medium for all isolates was cation-adjusted Mueller Hinton broth (CAMHB; BD/BBL; Lot No. 8190586). CAMHB (Cation Adjusted Mueller Hinton Broth) was supplemented with 3% (v/v) lysed horse blood (LHB; Hemostat, Dixon, Calif.; Lot No. 474990) for the testing of streptococci.
# (§4) MIC values were determined using a broth microdilution method as recommended by CLSI. Automated liquid handlers (Multidrop 384, Labsystems, Helsinki, Finland; Biomek 2000 and Biomek F/X, Beckman Coulter, Fullerton Calif.) were used to conduct serial dilutions and make liquid transfers.
# (§5) The wells of standard 96-well microdilution plates (Costar 3795, Corning Inc., Corning, N.Y.) were filled with 150 μL of the appropriate diluent in columns 2-12 on the Multidrop 384 (DMSO for the thiostrepton analogs, deionized H2O for vancomycin and ceftazidime). These plates were used to prepare the drug “mother plate” which provided the serial drug dilutions for the replicate “daughter plates”. The compounds (300 μL) were dispensed at 101× the highest concentration to be tested into the appropriate row of the “mother plate”. The Biomek 2000 was used to transfer 150 μL of each stock solution from the wells in Column 1 of the mother plate to make ten subsequent 2-fold serial dilutions. The wells of Column 12 contained no drug and served as the organism growth control wells. The daughter plates were loaded with 190 μL of test medium using the Multidrop 384.
# (§6) The daughter plates were prepared on the Biomek F/X instrument which transferred […] of drug solution from each well of the mother plate to each corresponding well of each daughter plate in a single step. The wells of the daughter plates ultimately contained 190 μL of media, 2 μL of drug solution, and 10 μL of inoculum prepared as described below. The final concentration of DMSO (if used as a solvent) in the test well was 1%.
# (§7) A standardized inoculum of each organism was prepared per CLSI methods. A suspension of organisms from a fresh plate was prepared in CAMHB to equal the turbidity of a 0.5 McFarland standard. The suspensions were diluted 1:20 in CAMHB, or in the case of streptococci CAMHB with LHB. The inoculum for each organism was dispensed into sterile reservoirs divided by length (Beckman Coulter), and the Biomek 2000 was used to inoculate the plates. Daughter plates were placed on the Biomek 2000 work surface reversed so that inoculation took place from low to high drug concentration. The Biomek 2000 delivered 10 μL of standardized inoculum into each well. These dilutions yielded a final cell concentration in the daughter plates of approximately 5.0×10^5 CFU/mL.
# (§8) Plates were stacked 3 high, covered with a lid on the top plate, placed in plastic bags, and incubated at 35° C. for 16-20 hr for all organisms except streptococci which were incubated for 20-24 hr. Following incubation, the microplates were removed from the incubator and viewed from the bottom using a plate viewer. The MIC was read and recorded as the lowest concentration of drug that inhibited visible growth of the organism. […]
# [2] = test system: S. aureus MMX 8088 MRSA; assay: MIC broth microdilution; assay type: cell-based; settings: Staphylococcus aureus
# Protocol: as §1, §2, §3, §4, §5, §6, §7, §8
# [3] = test system: E. faecium MMX 708 VSE; assay: MIC broth microdilution; assay type: cell-based; settings: Enterococcus faecium, MMX708VSE
# Protocol: as §1, §2, §3, §4, §5, §6, §7, §8
# [4] = test system: E. faecium MMX 485 VRE; assay: MIC broth microdilution; assay type: cell-based; settings: Enterococcus faecium
# Protocol: as §1, §2, §3, §4, §5, §6, §7, §8
# [5] = test system: E. faecalis MMX 486 VRE; assay: MIC broth microdilution; assay type: cell-based; settings: Enterococcus faecalis
# Protocol: as §1, §2, §3, §4, §5, §6, §7, §8
# [6] = test system: S. pneumoniae ATCC 49619 PISP; assay: MIC broth microdilution; assay type: cell-based; settings: Streptococcus pneumoniae, ATCC49619, 20 h
# Protocol: as §1, §2, §3, §4, §5, §6, §7, §8
# [7] = test system: S. pyogenes ATCC 19615; assay: MIC broth microdilution; assay type: cell-based; settings: Streptococcus pyogenes, ATCC19615, 20 h
# Protocol: as §1, §2, §3, §4, §5, §6, §7, §8
# [8] = test system: S. aureus ATCC 29213 MSSA; assay: MIC broth microdilution; assay type: cell-based; settings: Staphylococcus aureus
# Protocol: as §1, §2, §3, §4, §5, §6, §7, §8
# [9] = test system: E. coli ATCC 25922; assay: MIC broth microdilution; assay type: cell-based; settings: Escherichia coli, ATCC25922
# Protocol: as §1, §2, §3, §4, §5, §6, §7, §8
# [10] = Aqueous solubility analysis in MOPS buffer; assay type: physicochemical; settings: thermodynamic from solid, after 24 hours in 10 mM aqueous MOPS buffer, pH 7.2
# Protocol: A 2 dram vial was loaded with ˜0.5 mg of a thiostrepton derivative and suspended in ˜4 mL of aqueous 10 mM MOPS buffer (pKa 7.2). The suspension was stirred vigorously for 24 h to ensure equilibration, then filtered through a […] centrifuge filtration unit. A 3.0 mL aliquot was concentrated, and the dried residue was diluted with 0.30 mL of 1:1 1,4-dioxane/H2O (10× original concentration necessitated by detection limits). The total UV absorbance (200-300 nm) was measured in triplicate by UPLC runs with a photodiode array detector. A calibration curve for each compound was created using data points from 3 trials each of concentrations in 1:1 1,4-dioxane/H2O ranging from […]. These concentrations were plotted against their respective average absorbances. The experimental concentration of each compound was calculated by dividing the found μg/mL value by the residue concentration factor of 10 to yield the actual solubility value.
# [11] = E. faecalis ATCC 29212 VSE, CAMHB, read-out: MIC
# [12] = S. aureus MMX 8088 MRSA, CAMHB, read-out: MIC
# [13] = E. faecium MMX 708 VSE, CAMHB, read-out: MIC
# [14] = E. faecium MMX 485 VRE, CAMHB, read-out: MIC
# [15] = E. faecalis MMX 486 VRE, CAMHB, read-out: MIC
# [16] = S. pneumoniae ATCC 49619 PISP, CAMHB with 3% lysed horse blood, read-out: MIC
# [17] = S. pyogenes ATCC 19615, CAMHB with 3% lysed horse blood, read-out: MIC
# [18] = S. aureus ATCC 29213 MSSA, CAMHB, read-out: MIC
# [19] = E. coli ATCC 25922, CAMHB, read-out: MIC
"MIC [1, 11] [µg/mL]","MIC [2, 12] [µg/mL]","MIC [3, 13] [µg/mL]","MIC [4, 14] [µg/mL]","MIC [5, 15] [µg/mL]","MIC [6, 16] [µg/mL]","MIC [7, 17] [µg/mL]","MIC [8, 18] [µg/mL]","MIC [9, 19] [µg/mL]",solubility at 24 h ([10]; aqueous 10 mM MOPS buffer) [µg/mL],SMILES,MIC [1] [µg/mL],MIC ([2]; MRSA) [µg/mL],MIC [3] [µg/mL],MIC ([4]; VRE) [µg/mL],MIC ([5]; VRE) [µg/mL],MIC [6] [µg/mL],MIC [7] [µg/mL],MIC [8] [µg/mL],MIC [9] [µg/mL],solubility at 24 h [10] [µg/mL]
,,,,,,,,,,C=C(NC(=O)c1csc(C2=N[C@@H]3c4csc(n4)[C@H]4NC(=O)c5csc(n5)[C@H]([C@](C)(O)[C@@H](C)O)NC(=O)C5CSC(=N5)/C(=C/C)NC(=O)[C@H]([C@@H](C)O)NC(=O)c5csc(n5)[C@]3(CC2)NC(=O)[C@H](C)NC(=O)C(=C)NC(=O)[C@H](C)NC(=O)[C@H]([C@@H](C)CC)N[C@@H]2C=Cc3c([C@H](C)O)cc(nc3[C@H]2O)C(=O)O[C@@H]4C)n1)C(=O)NC(=CNC(=O)c1ccccc1)C(N)=O [RJS-02],1,2,0.5,0.5,1,0.008,0.002,1,> 64,< 1
1,2,1,0.5,1,0.004,0.004,1,> 64,1.1,C=C(NC(=O)c1csc(C2=N[C@@H]3c4csc(n4)[C@H]4NC(=O)c5csc(n5)[C@H]([C@](C)(O)[C@@H](C)O)NC(=O)C5CSC(=N5)/C(=C/C)NC(=O)[C@H]([C@@H](C)O)NC(=O)c5csc(n5)[C@]3(CC2)NC(=O)[C@H](C)NC(=O)C(=C)NC(=O)[C@H](C)NC(=O)[C@H]([C@@H](C)CC)N[C@@H]2C=Cc3c([C@H](C)O)cc(nc3[C@H]2O)C(=O)O[C@@H]4C)n1)C(=O)NC(=CNC(=O)c1cccc(C(C)=O)c1)C(N)=O [RJS-05],,,,,,,,,,
1,1,1,0.5,1,0.015,0.008,0.5,> 64,28,C=C(NC(=O)c1csc(C2=N[C@@H]3c4csc(n4)[C@H]4NC(=O)c5csc(n5)[C@H]([C@](C)(O)[C@@H](C)O)NC(=O)C5CSC(=N5)/C(=C/C)NC(=O)[C@H]([C@@H](C)O)NC(=O)c5csc(n5)[C@]3(CC2)NC(=O)[C@H](C)NC(=O)C(=C)NC(=O)[C@H](C)NC(=O)[C@H]([C@@H](C)CC)N[C@@H]2C=Cc3c([C@H](C)O)cc(nc3[C@H]2O)C(=O)O[C@@H]4C)n1)C(=O)NC(=CNC(=O)COC)C(N)=O [RJS-06],,,,,,,,,,

# From patent US20220315624A1, “THIOSTREPTON ANALOGS AND METHODS OF MAKING AND USING SAME” (YALE UNIVERSITY, priority 2019, published 2022)
